Experimental data: US20240002404A1, “SALT OF PYRROLOPYRIMIDINE COMPOUND, CRYSTALLINE FORM THEREOF, AND APPLICATION THEREOF” (GUANGZHOU JOYO PHARMATECH CO., LTD, priority 2020, published 2024)
Structures can show the parent of a compound that is named as a salt. Where two headings read alike, the source gives them in different places.

Legend:
[1] = Dynamic solubility evaluation in water and biological menstruums; assay type: physicochemical; conditions: for pH: solubility sample
Procedure: The dynamic solubility of the crystal form B of the sulfate, the crystal form A of the maleate and the crystal form C of the hydrochloride in water and three biological menstruums was evaluated.

[2] = Solid state stability (HPLC purity after storage); assay type: physicochemical
Procedure: The chemical stability of the samples was determined by HPLC after placing the crystal form B of the sulfate, the crystal form A of the maleate and the crystal form C of the hydrochloride at 25° C./60% RH and 40° C./75% RH for 1 week, respectively. For the maleate, additional stability data for one month and two months storage at 25° C./60% RH and 40° C./75% RH (open) were collected, and using the crystal form A of maleate as the starting sample, stability data for 24 hours storage at 60° C. (closed) were collected.

[3] = Hygroscopicity evaluation by DVS; assay type: physicochemical; conditions: 25° C./80% RH, listed as crystal form B of the sulfate
Procedure: The hygroscopicity of the crystal form B of the sulfate, the crystal form A of the maleate and the crystal form C of the hydrochloride was evaluated by DVS. The water adsorption (second adsorption curve) of the three salt forms at 25° C./80% RH is 7.62%, 1.35% and 4.77% respectively.

in vitro = conditions: human, Caco-2, pH 7.4
Procedure: The transport buffer solution was HBSS (Hanks' balanced salt solution) and 10 mM HEPES [N-(2-hydroxyethyl)piperazine-N-(2-ethanesulfonic acid) solution], with a pH value of 7.40±0.05; Caco-2 cells were purchased from ATCC.
Caco-2 cells were seeded at 1×10^5 cells/cm^2 in 96-well BD insert plates of polyethylene terephthalate (PET), and the medium was refreshed every 4-5 days until day 21-28 to form a confluent monolayer. Test compounds were tested in a two-way format at 2 μM in duplicate. Digoxin was added at 10 μM in the two-way format, and nadolol and metoprolol were added at 2 μM in the two-way format. Final concentration of DMSO was adjusted to less than 1%. The plates were incubated in a CO2 incubator at 37±1° C. for 2 h with 5% CO2 at saturated humidity without shaking. All samples were mixed with acetonitrile containing an internal standard, and centrifuged at 4000 rpm for 10 min. 100 microliters of supernatant was diluted with 100 microliters of distilled water for LC/MS/MS analysis. By LC/MS/MS analysis, the concentrations of the test compounds and the reference compound in the initial test article solution, the test article solution and the test compound solution using the peak area ratio of the analyte to the internal standard. After the transport test, the integrity of the Caco-2 cell monolayer was determined by fluorescein yellow exclusion reaction, and the apparent permeability coefficient and efflux ratio were calculated.

[4] = FaSSIF, 1 hour, 37° C., feeding 10 mg/mL
[5] = FaSSIF, 2 hours, 37° C., feeding 10 mg/mL
[6] = FaSSIF, 4 hours, 37° C., feeding 10 mg/mL
[7] = FaSSIF, 24 hours, 37° C., feeding 10 mg/mL
[8] = FeSSIF, 1 hour, 37° C., feeding 10 mg/mL
[9] = FeSSIF, 2 hours, 37° C., feeding 10 mg/mL
[10] = FeSSIF, 4 hours, 37° C., feeding 10 mg/mL
[11] = FeSSIF, 24 hours, 37° C., feeding 10 mg/mL
[12] = H2O, 24 hours, 37° C., feeding 10 mg/mL
[13] = H2O, 1 hour, 37° C., feeding 10 mg/mL
[14] = H2O, 2 hours, 37° C., feeding 10 mg/mL
[15] = H2O, 4 hours, 37° C., feeding 10 mg/mL
[16] = SGF, 1 hour, 37° C., feeding 10 mg/mL
[17] = SGF, 2 hours, 37° C., feeding 10 mg/mL
[18] = SGF, 4 hours, 37° C., feeding 10 mg/mL
[19] = SGF, 24 hours, 37° C., feeding 10 mg/mL

SMILES: CN(c1ncnc2[nH]ccc12)[C@@H]1CCc2cc(C#N)nn2C1 [Crystal form A of maleate]
- S: solubility [1, 4]: 980 µg/mL
- S: solubility [1, 5]: 960 µg/mL
- S: solubility [1, 6]: 980 µg/mL
- S: solubility [1, 7]: 770 µg/mL
- S: solubility [1, 8]: 60 µg/mL
- S: solubility [1, 9]: 50 µg/mL
- S: solubility [1, 10]: 50 µg/mL
- S: solubility [1, 11]: 30 µg/mL
- S: solubility [1, 12]: 1700 µg/mL
- solubility at 1 h ([1]; SGF, 37 °C, simulated gastric fluid, thermodynamic from solid, SGF, 1 hour, 37° C., feeding 10 mg/mL, read-out: S: solubility): 6800 µg/mL
- solubility at 2 h ([1]; SGF, 37 °C, simulated gastric fluid, thermodynamic from solid, SGF, 2 hours, 37° C., feeding 10 mg/mL, read-out: S: solubility): 6400 µg/mL
- solubility at 4 h ([1]; SGF, 37 °C, simulated gastric fluid, thermodynamic from solid, SGF, 4 hours, 37° C., feeding 10 mg/mL, read-out: S: solubility): 6600 µg/mL
- solubility at 24 h ([1]; SGF, 37 °C, simulated gastric fluid, thermodynamic from solid, SGF, 24 hours, 37° C., feeding 10 mg/mL, read-out: S: solubility): 3900 µg/mL
- solubility at 1 h ([1]; water, 37 °C, water, thermodynamic from solid, H2O, 1 hour, 37° C., feeding 10 mg/mL, read-out: S: solubility): 2900 µg/mL
- solubility at 2 h ([1]; water, 37 °C, water, thermodynamic from solid, H2O, 2 hours, 37° C., feeding 10 mg/mL, read-out: S: solubility): 2800 µg/mL
- solubility at 4 h ([1]; water, 37 °C, water, thermodynamic from solid, H2O, 4 hours, 37° C., feeding 10 mg/mL, read-out: S: solubility): 2700 µg/mL

SMILES: CN(c1ncnc2[nH]ccc12)[C@@H]1CCc2cc(C#N)nn2C1 [Crystal form B of sulfate]
- S: solubility [1, 4]: 3400 µg/mL
- S: solubility [1, 5]: 3400 µg/mL
- S: solubility [1, 6]: 3300 µg/mL
- S: solubility [1, 7]: 2600 µg/mL
- S: solubility [1, 8]: 70 µg/mL
- S: solubility [1, 9]: 70 µg/mL
- S: solubility [1, 10]: 60 µg/mL
- S: solubility [1, 11]: 50 µg/mL
- S: solubility [1, 13]: 3700 µg/mL
- S: solubility [1, 14]: 3800 µg/mL
- S: solubility [1, 15]: 3700 µg/mL
- S: solubility [1, 12]: 4000 µg/mL
- S: solubility [1, 16]: 5300 µg/mL
- S: solubility [1, 17]: 5000 µg/mL
- S: solubility [1, 18]: 4800 µg/mL
- S: solubility [1, 19]: 5300 µg/mL
- pH ([1]; FaSSIF, 1 hour): 2.7
- pH ([1]; FaSSIF, 2 hours): 2.6
- pH ([1]; FaSSIF, 4 hours): 2.7
- pH ([1]; FaSSIF, 24 hours): 2.4
- pH ([1]; FeSSIF, 1 hour): 4.3
- pH ([1]; FeSSIF, 2 hours): 4.3
- pH ([1]; FeSSIF, 4 hours): 4.3
- pH ([1]; FeSSIF, 24 hours): 4.4
- pH ([1]; H2O, 1 hour): 2.0
- pH ([1]; H2O, 2 hours): 2.2
- pH ([1]; H2O, 4 hours): 2.1
- pH ([1]; H2O, 24 hours): 1.9
- pH ([1]; SGF, 1 hour): 1.7
- pH ([1]; SGF, 2 hours): 1.8
- pH ([1]; SGF, 4 hours): 1.8
- pH ([1]; SGF, 24 hours): 1.6
- Purity (area %) ([2]; 25° C./60% RH, 1 week): 97.98 area %
- Purity/Initial Purity (%) ([2]; 25° C./60% RH, 1 week): 99.57%
- Purity (area %) ([2]; 40° C./75% RH, 1 week): 98.06 area %
- Purity/Initial Purity (%) ([2]; 40° C./75% RH, 1 week): 99.65%
- Purity (area %) ([2]; Initial): 98.40 area %
- water adsorption (second adsorption curve) [3]: 7.62%

SMILES: CN(c1ncnc2[nH]ccc12)[C@@H]1CCc2cc(C#N)nn2C1 [Crystal form C of hydrochloride]
- S: solubility [1, 4]: 670 µg/mL
- S: solubility [1, 5]: 640 µg/mL
- S: solubility [1, 6]: 590 µg/mL
- S: solubility [1, 7]: 490 µg/mL
- S: solubility [1, 8]: 20 µg/mL
- S: solubility [1, 9]: 20 µg/mL
- S: solubility [1, 10]: 20 µg/mL
- S: solubility [1, 11]: 10 µg/mL
- S: solubility [1, 13]: 2700 µg/mL
- S: solubility [1, 14]: 2400 µg/mL
- S: solubility [1, 15]: 2300 µg/mL
- S: solubility [1, 12]: 2000 µg/mL
- S: solubility [1, 16]: 5600 µg/mL
- S: solubility [1, 17]: 5300 µg/mL
- S: solubility [1, 18]: 5100 µg/mL
- S: solubility [1, 19]: 4300 µg/mL

SMILES: C[C@H]1O[C@@H](O[C@H]2[C@@H](O)C[C@H](O[C@H]3[C@@H](O)C[C@H](O[C@H]4CC[C@@]5(C)[C@H](CC[C@@H]6[C@@H]5C[C@@H](O)[C@]5(C)[C@@H](C7=CC(=O)OC7)CC[C@]65O)C4)O[C@@H]3C)O[C@@H]2C)C[C@H](O)[C@@H]1O [Digoxin]
- Papp A→B at 2 h, 2 μM (in vitro): 0.04 ×10⁻⁶ cm/s
- Papp B→A at 2 h, 2 μM (in vitro): 13.9 ×10⁻⁶ cm/s
- efflux ratio at 2 h, 2 μM (in vitro): 349

SMILES: COCCc1ccc(OCC(O)CNC(C)C)cc1 (centres unmarked) [Metoprolol]
- Papp A→B at 2 h, 2 μM (in vitro): 18.1 ×10⁻⁶ cm/s
